Values quoted from earlier work, collected in patent US8568753B2, “Delivery system” (Starpharma Pty Limited, priority 2005, dated 2013).

System: herpes simplex virus type 2 (HSV-2), Strain G
Conditions: previous studies

Substance: nonoxynol-9
- relative susceptibility to HSV-2 infection vs control animals: 29.7 times
- animals infected with HSV-2 (low-dose inoculum): 29 out of 42
